Measured values reported in article PMC12446422, “Breastfeeding on ART and a closer look at drug transfer to HIV-exposed uninfected infants” (Scientific Reports, 2025).
Where “and” joins values, the source holds several entries; their conditions need not be identical. Equal entries are not always repeated. Entries after “also recorded” stand apart in the source; their conditions may differ.

Key:
[1] = ART drug monitoring in maternal serum (HPLC-UV); format: in vivo, human; settings: for Maternal serum level, in words: against adult target range
Protocol: (§1) HIV-exposed infants were followed at the Pediatric Infectious Diseases Outpatient Clinic at the Department of General Pediatrics according to the current German and European guidelines for HIV-exposed or infected children[6],[11]. MLWH were followed at the department of Infection Medicine, Medical Service Centre Clotten, Freiburg. […] Two mothers (infants 2 and 4) were treated with dolutegravir 50 mg (DTG), abacavir 600 mg (ABC), and lamivudine 300 mg (3TC) once daily. The […] of infant 3 received tenofovir alafenamide/emtricitabine 25/200 mg (TAF/FTC) once daily in combination with nevirapine 200 mg (NVP) twice daily.
(§2) For all HIV-exposed children visits, clinical examinations and blood sampling took place at the age of one, four and 18 to 24 months. […] Routine blood tests included blood cell counts with differentials, transaminases, bilirubin at the first presentation, HIV-PCR and at 18–24 months or after cessation of breastfeeding HIV serology was performed. Primary outcome was infant serum drug exposure; breast-milk concentrations served as supportive secondary data. Serum samples of mothers and infants were drawn during visits to our clinic. Neither the timing of maternal drug intake and breastfeeding, nor the timing of the blood samples, was standardized. Therefore, no pharmacokinetic calculations could be performed. When available, additional serum samples of infants or mothers and a breast milk sample were sent to the Drug monitoring laboratory, Division of Infectious Diseases, Department of Internal Medicine II, University of Würzburg Medical Center, Germany. […] To assess the infant’s ART drug exposure upon breastfeeding, we calculated the relative infant dose (RID). The RID is a commonly used tool for assessing drug exposure and is calculated by dividing the infant’s ART level by the mother’s ART level, expressed as a decimal or percentage[13],[14]. All information for this study was derived from routine clinical exams and was, when available, retrospectively extracted from the patients’ medical records. […] For analysis, the HEU children were divided in 2 groups: HEU breastfed infants (n = 8) and HEU formula-fed infants (n = 62). […] All research was performed in accordance with relevant guidelines and regulations. Data collection and analysis were carried out in Microsoft Excel and R.

[2] = ART drug monitoring in breast milk (HPLC-UV); format: in vivo, human; settings: oral, read-out: ART level in breast milk (BM); for concentration at 6 months (infant age): human one
Protocol: as §1, §2

[3] = ART drug monitoring in serum of breastfed HEU infants (HPLC-UV); format: in vivo, human; settings: for concentration at 1 month (infant age) / concentration at 6 months (infant age) / concentration at 4 months (infant age) / concentration at 14 days (infant age): human; for Infant serum level, in words: breastfed infants, against detection limit or adult target range; for concentration at 6 months (infant age): 6 months of age, breastfeeding exclusive, partial or stopped
Protocol: as §1, §2

[4] = Relative infant dose (RID): infant ART level divided by mother's ART level; format: in vivo, human; settings: for < 10% RID: target RID expressed as infant serum level
Protocol: as §2
The RID is used for clinical risk assessment, with a target RID of below 10% indicating a low risk of adverse drug reactions in infants[16],[17].

HEU breastfed infants = experiment: Absolute neutrophil count of ART-exposed HEU breastfed infants; format: in vivo, human
Protocol: as §2
ART serum levels above a 10% RID of the adult target range and neutropenia <1,0 (1000/µl) are indicated in bold.

[5] = target range for drug trough levels in adults; cited from earlier work
[6] = statement in discussion; cited from earlier work
[7] = statement in discussion; cited from earlier work; remark: listed apart in the source
[8] = serum, other: breastfeeding (maternal ART), breastfed infant (entry one), read-out: ART level in infant serum (IS)
[9] = all occasions, infant serum below detection, infant 4 (DTG), 8 (RAL), 5 (DRV/r), 7 (RPV)
[10] = child, infant 1 (RPV), infant 3 (nevirapine), infant 2 (DTG)
[11] = 14 days, breastfed infant exposed to maternal ART, ZDV prophylaxis given
[12] = serum, other: breastfeeding (maternal ART), read-out: ART level in infant serum (IS)

| concentration at 6 months (infant age) [2] | concentration at 1 month (infant age) ([2]; human three) | concentration at 1 month (infant age) [3, 8] | RID (relative infant dose) [4, 9] | RID (relative infant dose) [4, 10] | < 10% RID [4] | concentration at 6 months (infant age) [3, 12] | SMILES | Maternal serum level, in words [1] | concentration at 4 months (infant age) ([2]; human two) | Neutro_abs (absolute neutrophil count) (HEU breastfed infants; 18 months) | Neutro_abs (absolute neutrophil count) (HEU breastfed infants; [11]) | Adult trough level [5] | Lipophilicity [6] | Infant serum level, in words [3] | Neutro_abs (absolute neutrophil count) (HEU breastfed infants; 4 months) | Neutro_abs (absolute neutrophil count) (HEU breastfed infants; 1 month) | Neutro_abs (absolute neutrophil count) (HEU breastfed infants; 6 months) | also measured |
| --- | --- | --- | --- | --- | --- | --- | --- | --- | --- | --- | --- | --- | --- | --- | --- | --- | --- | --- |
| < 50 ng/mL | < 50 ng/mL | – | < 10% | 633% | < 20 ng/mL | < 50 ng/mL | Cc1cc(/C=C/C#N)cc(C)c1Nc1ccnc(Nc2ccc(C#N)cc2)n1 [RPV, rilpivirine] | above the adult target range; also recorded: well above the adult therapeutic range | – | 1,77 1000/ µl and 1,65 1000/ µl and 1,39 1000/ µl | 2,25 1000/ µl and 2,27 1000/ µl | 50 to 200 ng/mL | highly lipophilic | below the detectable range; also recorded: below the range of detection; also recorded: above the adult target range | 1,80 1000/ µl and 1,15 1000/ µl and 1,05 1000/ µl | – | – | – |
| – | – | 1210 ng/mL | – | 171% | < 670 ng/mL | 649 ng/mL | Cc1ccnc2c1NC(=O)c1cccnc1N2C1CC1 [NVP, nevirapine] | – | – | 1,32 1000/ µl | – | 1600 to 6700 ng/mL | highly lipophilic | – | 1,20 1000/ µl | 1,53 1000/ µl | 3,33 1000/ µl | concentration at 6 months (infant age) ([1]; human one, serum, oral, read-out: ART level in maternal serum (MS)): 3930 ng/mL; concentration at 4 months (infant age) ([3]; serum, other: breastfeeding (maternal ART), breastfed infant (entry two), read-out: ART level in infant serum (IS)): 1150 ng/mL |

Further lines, the compound ahead of its results:

| SMILES | concentration at 6 months (infant age) [2] | concentration at 1 month (infant age) ([2]; human three) | concentration at 1 month (infant age) [3, 8] | RID (relative infant dose) [4, 9] | RID (relative infant dose) [4, 10] | < 10% RID [4] | concentration at 6 months (infant age) [3, 12] | Maternal serum level, in words [1] | concentration at 4 months (infant age) ([2]; human two) | Neutro_abs (absolute neutrophil count) (HEU breastfed infants; 18 months) | Neutro_abs (absolute neutrophil count) (HEU breastfed infants; [11]) | Adult trough level [5] | Lipophilicity [6] | Infant serum level, in words [3] | Neutro_abs (absolute neutrophil count) (HEU breastfed infants; 4 months) | Neutro_abs (absolute neutrophil count) (HEU breastfed infants; 1 month) | Neutro_abs (absolute neutrophil count) (HEU breastfed infants; 6 months) | also measured |
| --- | --- | --- | --- | --- | --- | --- | --- | --- | --- | --- | --- | --- | --- | --- | --- | --- | --- | --- |
| C[C@@H]1CCO[C@H]2Cn3cc(C(=O)NCc4ccc(F)cc4F)c(=O)c(O)c3C(=O)N12 [DTG, dolutegravir] | 680 ng/mL | < 50 ng/mL | < 50 ng/mL | < 10% | 240% | < 400 ng/mL | – | within the therapeutic range | 648 ng/mL | 3,25 1000/ µl | 3,53 1000/ µl | 250 to 4000 ng/mL | moderately lipophilic | – | – | – | – | concentration at 4 months (infant age) ([1]; human two, serum, oral, read-out: ART level in maternal serum (MS)): 2410 ng/mL |
| Cc1nnc(C(=O)NC(C)(C)c2nc(C(=O)NCc3ccc(F)cc3)c(O)c(=O)n2C)o1 [RAL, raltegravir] | – | – | – | – | – | < 55 ng/mL | – | – | – | 3,35 1000/ µl | 2,74 1000/ µl | – | moderately lipophilic | below the detectable range | – | 1,32 1000/ µl | – | concentration at 1 month (infant age) ([1]; female, human, in vivo): 872 ng/mL; concentration at 4 months (infant age) ([1]; female, human, in vivo): 184 ng/mL; concentration at 14 days (infant age) ([1]; female, human, serum, oral, 14 days of age, timing of intake and sampling not standardized, read-out: ART level in maternal serum (MS)): < 75 ng/mL; concentration at 1 month (infant age) ([2]; female, human, 1 month of age): 293 ng/mL; concentration at 4 months (infant age) ([2]; female, human, 4 months of age): 168 ng/mL; concentration at 14 days (infant age) ([2]; female, human, 14 days of age): 1760 ng/mL; concentration at 1 month (infant age) ([3]; in vivo): < 75 ng/mL; concentration at 4 months (infant age) ([3]; in vivo): < 75 ng/mL; concentration at 14 days (infant age) ([3]; in vivo): < 75 ng/mL |
| CC(C)CN(C[C@@H](O)[C@H](Cc1ccccc1)NC(=O)O[C@H]1CO[C@H]2OCC[C@H]21)S(=O)(=O)c1ccc(N)cc1 [DRV, darunavir] | < 250 ng/mL | < 250 ng/mL | – | – | – | < 380 ng/mL | – | – | < 250 ng/mL | – | 1,16 1000/ µl | – | lipophilic | below detectable levels | 0,64 1000/ µl | 0,69 1000/ µl | 1,15 1000/ µl | concentration at 1 month (infant age) ([1]; female, human, in vivo, 1 month of age, read-out: ART level in maternal serum (MS)): 3800 ng/mL; concentration at 4 months (infant age) ([1]; female, human, in vivo, 4 months of age, read-out: ART level in maternal serum (MS)): 4130 ng/mL; concentration at 6 months (infant age) ([1]; female, human, in vivo, 6 months of age, read-out: ART level in maternal serum (MS)): 3360 ng/mL; concentration at 14 days (infant age) ([3]; in vivo, breastfed infant (entry one), read-out: ART level in infant serum (IS)): < 50 ng/mL; concentration at 4 months (infant age) ([3]; in vivo, breastfed infant (entry three), read-out: ART level in infant serum (IS)): < 50 ng/mL; Plasma protein binding [7]: high |
